Data: paper PMC8838982 (Bioorganic chemistry, 2021)
Values joined by “and” are separate entries in the source; they are usually repeats but may differ in a detail not shown here. Equal values may be shown once.

Key:
Assay type in all cases: cell-based, influenza virus A/PR/8/34
[1] = tested on: PA-mutant H41A influenza virus polymerase
[2] = tested on: PA-mutant L42T influenza virus polymerase
[3] = tested on: PA-mutant G81T influenza virus polymerase
[4] = tested on: PA-mutant R84L influenza virus polymerase
[5] = tested on: PA-mutant I120T influenza virus polymerase
[6] = tested on: PA-mutant V122T influenza virus polymerase
[7] = tested on: PA-mutant R124Q influenza virus polymerase
[8] = tested on: PA-mutant K137L influenza virus polymerase
[9] = tested on: PA-mutant T20A influenza virus polymerase
[10] = tested on: PA-I38T mutant influenza virus polymerase

Compound | Fold increase in EC50 compared to wild-type [1] | Fold increase in EC50 compared to wild-type [2] | Fold increase in EC50 compared to wild-type [3] | Fold increase in EC50 compared to wild-type [4] | Fold increase in EC50 compared to wild-type [5] | Fold increase in EC50 compared to wild-type [6] | Fold increase in EC50 compared to wild-type [7] | Fold increase in EC50 compared to wild-type [8] | Fold increase in EC50 compared to wild-type [9] | Fold increase in EC50 compared to wild-type [10]
O=C1c2c(ccc(O)c2O)CN1Cc1ccc(O)cc1 [Compound 17, 2-(4-hydroxybenzyl)-6,7-dihydroxy-isoindolin-1-one] | 4.9 fold | 2.5 fold | 6.1 fold | 4 fold and 3.8 fold | 6.1 fold | 4.2 fold | 5.0 fold | 4.5 fold |  | 
baloxavir acid [BXA] | 0.2 fold | 1.1 fold | 0.2 fold | 0.2 fold | 0.7 fold | 0.7 fold | 0.5 fold |  | 0.3 fold | 65 fold
NC(=O)c1ncn([C@@H]2O[C@H](CO)[C@@H](O)[C@H]2O)n1 [Ribavirin, ribavirin] | 0.8 fold | 0.9 fold | 0.9 fold | 1.1 fold | 1.0 fold | 1.2 fold | 1.1 fold | 1.3 fold | 1.0 fold | 
